Source: PMC10095708, “Discovery of Novel STING Inhibitors Based on the Structure of the Mouse STING Agonist DMXAA” (Molecules, 2023)
Several values for one entry are separate records, joined by “and”; a condition that tells them apart may be missing. Equal values may be shown once.

Legend:
hSTING-WT = biological target: T1, hSTING-WT (Homo sapiens, UniProt Q86WV6, H232R); assay: HTRF STING competition binding (cGAMP displacement) assay, hSTING-WT; details: for IC50: HTRF displacement assay, means from at least three repeated experiments; for binding to hSTING-WT in displacement assay, in words: concentrations up to 100 μM
T1 construct: purchased Cisbio
Method: (§1) Mouse STING binding kits, human STING WT binding kits, human AQ STING binding kits, human H232 STING binding kits were purchased from Cisbio. […] QUANTI-Blue solution, QUANTI-Luc, 2′,3′-cGAMP were purchased from Invivogen. […] CellTiter-Glo luminescent cell viability assay kit was obtained from Promega.
(§2) According to the instructions of STING binding kits, the following solutions were successively added to each well in the 384-well plate: 5 μL of the detection compounds or 2′,3′-cGAMP (positive control) with different concentrations or diluent (negative control); 5 μL of human STING 6His-tagged protein (negative control well was added to detection buffer); 10 μL of STING ligand d2 and Anti 6His-Tb3^+ premixed working solution.

hSTING-AQ = biological target: T2, hSTING-AQ (Homo sapiens, UniProt Q86WV6, G230A/R293Q); assay: HTRF STING competition binding (cGAMP displacement) assay, hSTING-AQ; details: for IC50: HTRF displacement assay, means from at least three repeated experiments; for binding to hSTING-AQ in displacement assay, in words: concentrations up to 100 μM
T2 construct: purchased Cisbio
Method: as §1, §2

hSTING-H232 = biological target: T3, hSTING-H232 (Homo sapiens, UniProt Q86WV6); assay: HTRF STING competition binding (cGAMP displacement) assay, hSTING-H232; details: for IC50: HTRF displacement assay, means from at least three repeated experiments; for binding to hSTING-H232 in displacement assay, in words: concentrations up to 100 μM
T3 construct: purchased Cisbio
Method: as §1, §2

hSTING [1] = system: hSTING; parameters: method as in PMID 31927317; details: STING reporter cells, agonist activity; cited from earlier work
hSTING [2] = system: hSTING; parameters: method as in PMID 31927317; details: STING competition binding kits; cited from earlier work
mSTING [3] = biological target: T4, mSTING (Mus musculus, UniProt Q3TBT3); assay: HTRF STING competition binding (cGAMP displacement) assay, mSTING; parameters: purchased Cisbio; details: for IC50: HTRF displacement assay, means from at least three repeated experiments; for binding to mSTING in displacement assay, in words: concentrations up to 100 μM
T4 sequence (Q3TBT3 1-378): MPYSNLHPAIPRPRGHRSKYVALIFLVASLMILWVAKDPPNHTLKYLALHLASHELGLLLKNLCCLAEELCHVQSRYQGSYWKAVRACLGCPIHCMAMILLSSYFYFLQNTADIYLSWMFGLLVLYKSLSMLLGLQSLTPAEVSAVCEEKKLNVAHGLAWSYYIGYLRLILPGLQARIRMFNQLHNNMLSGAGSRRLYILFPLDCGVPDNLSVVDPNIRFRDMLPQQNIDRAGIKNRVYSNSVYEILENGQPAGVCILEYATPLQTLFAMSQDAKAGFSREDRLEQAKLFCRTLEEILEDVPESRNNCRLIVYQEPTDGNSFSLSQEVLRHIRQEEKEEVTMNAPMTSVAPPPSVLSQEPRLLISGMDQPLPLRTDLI
Method: as §1, §2

mSTING [4] = biological target: T4, mSTING; parameters: purchased Cisbio; method as in PMID 31927317; details: STING reporter cells, agonist activity; cited from earlier work
mSTING [5] = biological target: T4, mSTING; assay: Cellular assay for STING inhibitory activity, 293T mSTING cells stimulated with 2′,3′-cGAMP (SEAP); details: for inhibitory potency in murine STING reporter cells, initial screen: compound at 100 μM
hSTING-R232 = hSTING-R232 (Homo sapiens, UniProt Q86WV6, H232R); assay: Cellular assay for STING inhibitory activity, 293T hSTING-R232 cells stimulated with 2′,3′-cGAMP (SEAP); details: for inhibitory potency in human STING reporter cells, initial screen: compound at 100 μM
293T cells = assay: CellTiter-Glo luminescent cell viability assay, 293T cells; details: 48 h
THP-1 cells = assay: CellTiter-Glo luminescent cell viability assay, THP-1 cells; details: 48 h
[6] = system: STING-triggered NF-κB pathway; assay: Inhibition of STING dual pathways, THP1-KI-hSTING-R232 cells, NF-κB (SEAP); details: THP1-hSTING-R232 cells stimulated with 2′,3′-cGAMP, 24 h; 11 20 µM, 27 33 µM, H151 2 µM
Source text: (§3) After the THP-1 reporter cell line stimulation with 2′,3′-cGAMP, we added STING inhibitors with appropriate concentrations for inhibiting the inductions of I IFN and proinflammatory cytokine. […] In addition, to exclude the effect of cytotoxicity of the compounds on the inhibitory activity, we used the CellTiter-Glo kit to assay cellular activity.

[7] = system: STING-triggered IRF pathway; assay: Inhibition of STING dual pathways, THP1-KI-hSTING-R232 cells, IRF (Lucia luciferase); details: THP1-hSTING-R232 cells stimulated with 2′,3′-cGAMP, 24 h; 11 20 µM, 27 33 µM, H151 2 µM
Source text: as §3

T1 sequence (Q86WV6 whole entry H232R): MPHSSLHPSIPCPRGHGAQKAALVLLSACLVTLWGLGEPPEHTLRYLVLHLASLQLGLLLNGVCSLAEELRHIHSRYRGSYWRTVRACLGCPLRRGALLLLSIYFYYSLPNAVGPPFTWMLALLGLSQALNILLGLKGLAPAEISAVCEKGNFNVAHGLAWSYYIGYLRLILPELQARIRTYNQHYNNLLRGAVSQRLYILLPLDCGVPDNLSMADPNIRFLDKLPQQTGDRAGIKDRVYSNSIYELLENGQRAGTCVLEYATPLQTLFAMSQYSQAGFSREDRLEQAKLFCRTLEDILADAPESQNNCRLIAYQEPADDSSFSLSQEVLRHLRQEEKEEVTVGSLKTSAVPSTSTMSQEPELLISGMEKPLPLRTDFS
Chain of hSTING-R232 (Q86WV6 whole entry H232R): as above
T2 sequence (Q86WV6 whole entry G230A/R293Q): as the sequence (Q86WV6 whole entry H232R) above, with G230A, R232H, R293Q counted along it
T3 sequence (Q86WV6 135-379 limits assumed): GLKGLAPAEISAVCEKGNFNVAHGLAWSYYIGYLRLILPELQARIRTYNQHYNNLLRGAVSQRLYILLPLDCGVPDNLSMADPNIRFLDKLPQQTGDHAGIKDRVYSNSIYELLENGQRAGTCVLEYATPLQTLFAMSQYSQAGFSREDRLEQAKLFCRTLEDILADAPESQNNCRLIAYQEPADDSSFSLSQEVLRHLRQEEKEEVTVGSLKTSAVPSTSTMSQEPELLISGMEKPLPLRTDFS

Row | Compound | IC50 (hSTING-WT) | binding to hSTING-WT in displacement assay, in words (hSTING-WT) | IC50 (hSTING-AQ) | binding to hSTING-AQ in displacement assay, in words (hSTING-AQ) | IC50 (hSTING-H232) | binding to hSTING-H232 in displacement assay, in words (hSTING-H232) | IC50 (mSTING [3]) | further results
1 | COc1cc2c(=O)c3cccc4c3n(c2c(C)c1C)C(=O)C4 [Compound 3] | 18.3 µM | IC50 values at the micromolar level | 58.2 µM | IC50 values at the micromolar level | 36 µM | IC50 values at the micromolar level | 33.3 µM | EC50 (hSTING [1]): 154 ± 9.6 µM; IC50 (hSTING [2]): 10.3 µM; EC50 (mSTING [4]): 66.5 ± 10.5 µM; inhibitory potency in murine STING reporter cells, initial screen (mSTING [5]): not being as effective; inhibitory potency in human STING reporter cells, initial screen (hSTING-R232): not being as effective
2 | COc1cc2c(=O)c3cccc(CC(=O)O)c3[nH]c2c(C)c1C [Compound 4] | 21.1 µM | IC50 values at the micromolar level | 47.6 µM | IC50 values at the micromolar level | 43.8 µM | IC50 values at the micromolar level | 28.2 µM | EC50 (hSTING [1]): 135 ± 12.1 µM; IC50 (hSTING [2]): 13.1 µM; EC50 (mSTING [4]): 72.3 ± 11.1 µM; inhibitory potency in murine STING reporter cells, initial screen (mSTING [5]): not being as effective; inhibitory potency in human STING reporter cells, initial screen (hSTING-R232): not being as effective
3 | COc1cc2c(=O)c3ccccc3[nH]c2c(C)c1C [Compound 9, 2-methoxy-3,4-dimethylacridin-9(10H)-one] | > 100 µM | cannot bind to STING | > 100 µM | cannot bind to STING | > 100 µM | cannot bind to STING | > 100 µM | binding to mSTING in displacement assay, in words (mSTING [3]): cannot bind to STING
4 | CCOC(=O)Cn1c2ccccc2c(=O)c2cc(OC)c(C)c(C)c21 [Compound 10, Ethyl 2-(2-methoxy-3,4-dimethyl-9-oxoacridin-10 (9H)-yl)acetate] | > 100 µM | cannot bind to STING | > 100 µM | cannot bind to STING | > 100 µM | cannot bind to STING | > 100 µM | binding to mSTING in displacement assay, in words (mSTING [3]): cannot bind to STING
5 | COc1cc2c(=O)c3ccccc3n(CC(=O)O)c2c(C)c1C [Compound 11, 2-(2-methoxy-3,4-dimethyl-9-oxoacridin-10(9H)-yl)acetic acid] | < 20 µM and 5.81 µM | – | < 20 µM and 14.3 µM | – | < 20 µM and 12.1 µM | – | < 20 µM and 19 µM | cytotoxicity, cell viability 293T cells (293T cells; 5 to 100 μM): no evidence of cytotoxicity; cytotoxicity, cell viability THP-1 cells (THP-1 cells; 5 to 100 μM): no evidence of cytotoxicity; inhibition of STING-triggered NF-κB pathway activation [6]: significantly inhibited; inhibition of STING-triggered IRF pathway activation [7]: significantly inhibited; IC50 (mSTING [5]): 15.5 µM; inhibitory potency in murine STING reporter cells, initial screen (mSTING [5]): excellent inhibition; IC50 (hSTING-R232): 19.9 µM; inhibitory potency in human STING reporter cells, initial screen (hSTING-R232): excellent inhibition
6 | COc1cc2c(=O)c3c(Cl)ccc4c3n(c2c(C)c1C)C(=O)C4 [Compound 25, 5-chloro-8-methoxy-9,10-dimethyl-6H-pyrrolo [3,2,1-de]acridine-1,6(2H)-dione] | 78.1 µM | – | 48 µM | – | 37.7 µM | – | 32.4 µM | –
7 | COc1cc2c(=O)c3cc(Cl)cc4c3n(c2c(C)c1C)C(=O)C4 [Compound 26, 4-chloro-8-methoxy-9,10-dimethyl-6H-pyrrolo[3,2,1-de]acridine-1,6(2H)-dione] | > 100 µM | – | 65.1 µM | – | 79.1 µM | – | 51.5 µM | –
8 | COc1cc2c(=O)c3c(F)ccc4c3n(c2c(C)c1C)C(=O)C4 [Compound 27, 5-fluoro-8-methoxy-9,10-dimethyl-6H-pyrrolo[3,2,1-de]acridine-1,6(2H)-dione] | 7.67 µM | single-digit micromolar activity | 5.82 µM | single-digit micromolar activity | 6.57 µM | single-digit micromolar activity | 3.88 µM | binding to mSTING in displacement assay, in words (mSTING [3]): single-digit micromolar activity; inhibition of STING-triggered NF-κB pathway activation [6]: significantly inhibited; inhibition of STING-triggered IRF pathway activation [7]: significantly inhibited; IC50 (mSTING [5]): 30.8 µM; inhibitory potency in murine STING reporter cells, initial screen (mSTING [5]): excellent inhibition; IC50 (hSTING-R232): 38.8 µM; inhibitory potency in human STING reporter cells, initial screen (hSTING-R232): excellent inhibition
9 | COc1cc2c(=O)c3cc(F)cc4c3n(c2c(C)c1C)C(=O)C4 [Compound 28, 4-fluoro-8-methoxy-9,10-dimethyl-6H-pyrrolo[3,2,1-de]acridine-1,6(2H)-dione] | 88.1 µM | – | 55.2 µM | – | 62.4 µM | – | 61 µM | –
10 | COc1cc2c3c(c1)c(=O)c1cc(OC)c(C)c(C)c1n3C(=O)C2 [Compound 29, 4,8-dimethoxy-9,10-dimethyl-6H-pyrrolo[3,2,1-de]acridine-1,6(2H)-dione] | > 100 µM | – | 70.5 µM | – | 82.8 µM | – | > 100 µM | –
11 | COc1cc2c(=O)c3cccc(C(=O)O)c3[nH]c2c(C)c1C [Compound 33, 7-methoxy-5,6-dimethyl-9-oxo-9,10-dihydroacridine-4-carboxylic acid] | > 100 µM | inactive | > 100 µM | inactive | > 100 µM | inactive | > 100 µM | binding to mSTING in displacement assay, in words (mSTING [3]): inactive
12 | COc1cc(C(=O)O)c2[nH]c3c(C)c(C)c(OC)cc3c(=O)c2c1 [Compound 34, 2,7-dimethoxy-5,6-dimethyl-9-oxo-9,10-dihydroacridine-4-carboxylic acid] | > 100 µM | inactive | > 100 µM | inactive | > 100 µM | inactive | > 100 µM | binding to mSTING in displacement assay, in words (mSTING [3]): inactive
13 | COc1cc2c(=O)c3c(F)ccc(CC(=O)O)c3[nH]c2c(C)c1C [Compound 35] | > 100 µM | – | > 100 µM | – | > 100 µM | – | > 100 µM | –
14 | COc1cc2c(=O)c3c(Cl)ccc(CC(=O)O)c3[nH]c2c(C)c1C [Compound 36] | > 100 µM | – | > 100 µM | – | > 100 µM | – | > 100 µM | –
15 | COc1cc2c(=O)c3cc(F)cc(CC(=O)O)c3[nH]c2c(C)c1C [Compound 37] | > 100 µM | – | > 100 µM | – | > 100 µM | – | > 100 µM | –
16 | COc1cc2c(=O)c3cc(Cl)cc(CC(=O)O)c3[nH]c2c(C)c1C [Compound 38] | > 100 µM | – | > 100 µM | – | > 100 µM | – | > 100 µM | –
17 | CCc1ccc(NC(=O)Nc2c[nH]c3ccccc23)cc1 [Compound H151, reference compound] | – | – | – | – | – | – | – | cytotoxicity, cell viability 293T cells (293T cells; at 10 μM): significant cytotoxicity; cytotoxicity, cell viability THP-1 cells (THP-1 cells; at 10 μM): significant cytotoxicity
